Test results from patent US12214036B2, “Combination therapy comprising AXL/MER and PD-1/PD-L1 inhibitors” (Incyte Corporation, priority 2020, dated 2025).

Tested on: CTG-1861 tumors
Assay: PDX model CTG-1861 (gastrointestinal stromal tumor)
Type: in vivo
Conditions: athymic nude mice
From the text: MBT-2 cells were obtained from the Japanese Collection of Research Bioresources Cell Bank and were maintained in DMEM supplemented with 10% FBS. MC38 cells were obtained from the NCI. 4T1 cells were obtained from ATCC and maintained in RPMI media supplemented with 10% FBS. For MBT-2 experiments, 5×10^5 MBT-2 cells were inoculated subcutaneously into the right hind flank of 6- to 8-week-old C3H mice or athymic nude mice (Charles River Laboratories, Wilmington, Mass.). For MC38 studies, 12-week old female C57BL/6 mice were inoculated with brei of MC38 tumors (in-vivo passage 6) into the right hind flank. For 4T1 studies, 7.5×10^5 4 T1 cells were inoculated subcutaneously into the right hind flank of 6- to 8-week-old female BALB/c mice or athymic nude mice (Charles River Laboratories). […] Mice were monitored for tumor growth and overt tolerability over the course of the experiment. […] Tumor volume was calculated using the formula (L×W^2)/2, where L and W refer to the length and width dimensions, respectively. Tumor growth inhibition (TGI) was calculated using the formula (1−(VT/VC))×100, where VT is the tumor volume of the treatment group on the last day of treatment, and VC is the tumor volume of the control group on the last day of treatment. […]
The activity of Compound 1 in sarcoma PDX models was evaluated as described in Example H for PDX models. […] Three mice per group were analyzed. […]

In the case of `CC(C)C(=O)N1CCC(c2cc(-c3ccc(NC(=O)c4cn(C(C)C)c(=O)n(-c5ccccn5)c4=O)cc3)c3c(N)ncnn23)CC1` [Compound 1, N-(4-(4-Amino-7-(1-isobutyrylpiperidin-4-yl)pyrrolo[1,2-f][1,2,4]triazin-5-yl)phenyl)-1-isopropyl-2,4-dioxo-3-(pyridin-2-yl)-1,2,3,4-tetrahydropyrimidine-5-carboxamide], the “TGI (%)” value is reported as 74%.
